Results reported in ChEMBL document CHEMBL1142687, “New approaches toward anti-HIV chemotherapy” (J Med Chem, 2005).
Converted amounts (≈) assume the structure as drawn.

Tests used:
Cell line [1] = test: Reduction of viral load after oral administration at 100 mg for 8 weeks; expressed as log10 reduction; assay type: functional, Homo sapiens
[2] = tested on: Human immunodeficiency virus 1; test: Effective concentration against human immunodeficiency virus type 1 strains; (0.3-0.5 nM); assay type: functional, organism-based
[3] = tested on: Human immunodeficiency virus 1; test: Effective concentration of the compound against human immunodeficiency virus type 1; assay type: functional, organism-based
[4] = tested on: Human immunodeficiency virus 1; test: Selectivity index against human immunodeficiency virus type 1; assay type: functional
[5] = tested on: Human immunodeficiency virus 1; test: Effective concentration of the compound to inhibit the replication of human immunodeficiency virus type 1; assay type: functional, organism-based
[6] = tested on: Human immunodeficiency virus 1; test: Inhibitory concentration to inhibit HIV-1 mediated cell to cell fusion; assay type: functional, organism-based
[7] = Inhibitory concentration to inhibit cell to cell fusion based on C14 linkmid (a short constrained peptide); assay type: functional
Cell line [8] = test: Mean decrease in viral load in humans after administration of 100 mg twice a day; expressed as log10 reduction; assay type: functional, Homo sapiens
[9] = biological target: C-C chemokine receptor type 5 (Homo sapiens) (UniProt P51681)
Sequence of C-C chemokine receptor type 5 (Homo sapiens) (P51681 whole entry, looked up): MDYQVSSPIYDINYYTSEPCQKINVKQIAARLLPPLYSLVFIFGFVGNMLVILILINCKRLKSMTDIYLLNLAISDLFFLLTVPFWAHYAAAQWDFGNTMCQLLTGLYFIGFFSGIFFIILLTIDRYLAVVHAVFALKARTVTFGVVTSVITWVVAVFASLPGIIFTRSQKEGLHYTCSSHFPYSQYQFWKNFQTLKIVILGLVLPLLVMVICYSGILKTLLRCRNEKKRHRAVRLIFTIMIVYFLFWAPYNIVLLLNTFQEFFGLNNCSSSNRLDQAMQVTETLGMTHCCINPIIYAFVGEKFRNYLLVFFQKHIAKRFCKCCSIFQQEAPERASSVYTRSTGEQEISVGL
Description: Inhibitory concentration against human immunodeficiency virus isolates utilizing C-C chemokine receptor type 5 for cell entry

Cell line [10] = test: Mean decrease in viral load in humans after administration of 25 mg once a day; expressed as log 10 reduction; assay type: functional, Homo sapiens
[11] = Oral bioavailability in monkeys; assay type: ADME, organism-based; conditions: cercopithecidae, in vivo, read-out: Bioavailabiility
[12] = Oral bioavailability in fasted rats; assay type: ADME, organism-based; conditions: rat, in vivo, read-out: Bioavailabiility
[13] = tested on: Human immunodeficiency virus 1; test: (§1) Effective concentration to inhibit the replication of HIV-1 R5 strain; assay type: functional, organism-based
[14] = tested on: Human immunodeficiency virus 1; test: as §1; assay type: functional
Cell line [15] = test: Reduction of viral load after administration at 25 mg, twice daily for 10 days with antiretrovirals; expressed as log10 reduction; (0.5-1 ); assay type: functional, Homo sapiens
[16] = tested on: Human immunodeficiency virus 1; test: Fold reduction in plasma HIV RNAafter intravenous administration of 100 mg twice daily (1.5-2.0); assay type: functional
[17] = tested on: Human immunodeficiency virus 1; test: Cytotoxic concentration of the compound to inhibit HIV 1 replication; assay type: functional
[18] = tested on: Human immunodeficiency virus 1; test: Effective concentration of the compound to inhibit human immunodeficiency virus type 1 replication; assay type: functional, organism-based

Q: For `O=C1Nc2ccc(Cl)cc2[C@@](/C=C/C2CC2)(C(F)(F)F)N1`, which Reduction (Cell line [1]) is on record?
A: Its Reduction is 1.28.

Q: Which EC50 [2] does the source give for `COc1ccc(S(=O)(=O)N(CC(C)C)C[C@@H](O)[C@H](Cc2ccccc2)NC(=O)O[C@H]2CO[C@H]3OCC[C@H]32)cc1` here?
A: The EC50 was 0.5 nM.

Q: With `Cc1ccc(C)c(CSc2c(Cl)ccc[n+]2[O-])c1` as the compound, how does the EC50 [3] read?
A: The EC50 was 0.05 µg/mL (≈ 0.179 µM).

Q: And the SI [4]?
A: Its SI is roughly 760.

Q: For `O=[N+]([O-])c1ccc(C2c3c(O)nc(S)nc3Oc3nc(S)nc(O)c32)cc1`, which EC50 [5] is on record?
A: The EC50 was 8900 nM.

Q: For `CC(C)Cc1cc(-c2ccc(-c3ccc(CCC(=O)O)cc3CC(C)C)cc2C(C)C)ccc1OCC(=O)O`, which IC50 [6] is on record?
A: Its IC50 is roughly 15 µg/mL (≈ 28.3 µM).

Q: What about the IC50 [7] of the same compound?
A: The IC50 was 35000 nM.

Q: With `Cc1nnc(C(C)C)n1[C@H]1CC2CC[C@@H](C1)N2CC[C@H](NC(=O)C1CCC(F)(F)CC1)c1ccccc1` (single isomer, unassigned) [MARAVIROC] as the compound, how does the Activity (Cell line [8]) read?
A: Its Activity is 1.42.

Q: What about the IC90 [9] of the same compound?
A: The IC90 was less than 10 nM.

Q: And the Activity (Cell line [10])?
A: Its Activity is 0.42.

Q: With `CC(=O)N1CCC(C(=O)N(CCCN2CCC(Cc3ccc(C(N)=O)cc3)CC2)c2ccc(C)c(Cl)c2)CC1` as the compound, how does the bioavailability [11] read?
A: The bioavailability was 28.5%.

Q: And the bioavailability [12]?
A: The bioavailability was 9.5%.

Q: What about the EC50 [13] of the same compound?
A: The EC50 was 1.1 nM.

Q: What about the EC90 [14] of the same compound?
A: The EC90 was 13 nM.

Q: Which Reduction (Cell line [15]) does the source give for `COC[C@@H](c1ccc(C(F)(F)F)cc1)N1CCN(C2(C)CCN(C(=O)c3c(C)ncnc3C)CC2)C[C@@H]1C` [VICRIVIROC] here?
A: Its Reduction is 1.

Q: Which Reduction [16] does the source give for enfuvirtide here?
A: Its Reduction is 2.

Q: Which CC50 [17] does the source give for `O=C(/C=C(\O)c1ccc(Cc2ccc(F)cc2)o1)c1nc[nH]n1` here?
A: The CC50 was 110000 nM.

Q: And the EC50 [18]?
A: The EC50 was 140 nM.
